# In patent publication US20150010928A1, “MEANS AND METHODS FOR ASSESSING AN ENDOCRINE DISEASE OR DISORDER” (priority 2012, published 2015):
# Marks after values point to notes of the source that are not given here.
# Test system: male rats
# Assay: Plasma metabolite profiling (GC-MS, LC-MS, SPE-LC-MS) in male rats dosed once daily over 28 days (OECD 407)
# Type: in vivo, rat
# Settings: high dose; for 3-Methoxytyrosine / 3-O-Methylsphingosine (d18:1) / 5-O-Methylsphingosine (d18:1) / Androstenedione / Arachidonic acid (C20:cis[5,8,11,14]4) / Behenic acid (C22:0) / Cholesterol / Cysteine / Dodecanol / Eicosanoic acid (C20:0) / Galactose, lipid fraction / Glycerol phosphate, lipid fraction / Histidine / Indole-3-lactic acid / Lignoceric acid (C24:0) / Nervonic acid (C24:cis[15]1) / Noradrenaline (Norepinephrine) / Phosphate, lipid fraction / Phosphatidylcholine (C18:0, C18:2) / Phosphatidylcholine (C18:0, C20:3) / Phosphatidylcholine (C18:0, C22:6) / Phosphatidylcholine (C18:0,C18:1) / Phytosphingosine / Stearic acid (C18:0) / Testosterone / Threonine / Tricosanoic acid (C23:0) / Tryptophan / alpha-Tocopherol / beta-Sitosterol / dihomo-gamma-Linolenic acid (C20:cis[8,11,14]3) / erythro-Sphingosine (d18:1) / myo-Inositol-2-phosphate, lipid fraction / threo-Sphingosine (d18:1): Table 11a; for 3-Hydroxybutyrate / 4-Hydroxy-3-methoxyphenylglycol (HMPG) / 18-Hydroxy-11-deoxycorticosterone / 21-Hydroxyprogesterone (11-Deoxycorticosterone) / Citrate / Coenzyme Q9 / Coenzyme Q10 / Corticosterone / Metanephrine / Palmitoleic acid (C16:cis[9]1) / Phosphatidylcholine (C16:0, C16:0) / Progesterone / trans-4-Hydroxyproline: Table 11b; for 3-Hydroxybutyrate, ratio versus control / 18-Hydroxy-11-deoxycorticosterone, ratio versus control / Ceramide (d18:1, C24:1), ratio versus control / Coenzyme Q10, ratio versus control / Corticosterone, ratio versus control / Metanephrine, ratio versus control / Tricosanoic acid (C23:0), ratio versus control / alpha-Tocopherol, ratio versus control / trans-4-Hydroxyproline, ratio versus control: male rats, plasma
# Procedure, shortened: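 Metabolites were measured by GC-MS (derivatised) and reversed-phase LC-MS, with steroids by online SPE-LC-MS, in plasma drawn from fasted rats on days 7, 14 and 28 of once-daily dosing (5/sex/group). Values are ratios versus sex-matched untreated controls, normalized to pool samples, with Welch-test p-values.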
structure (smiles),measurement,setting,value
CC(=O)O[C@]1(C(C)=O)CC[C@H]2[C@@H]3C=C(Cl)C4=CC(=O)[C@@H]5C[C@@H]5[C@]4(C)[C@H]3CC[C@@]21C [Cyproteron Acetate],3-Methoxytyrosine,m7,1.37 *
same,3-O-Methylsphingosine (d18:1),m7,1.73 *
same,5-O-Methylsphingosine (d18:1),m7,1.83 *
same,Androstenedione,m7,4.65^
same,"Arachidonic acid (C20:cis[5,8,11,14]4)",m7,1.35 *
same,Behenic acid (C22:0),m7,1.38 *
same,Cholesterol,m7,1.33 *
same,Cysteine,m7,1.3 *
same,Dodecanol,m7,1.26 *
same,Eicosanoic acid (C20:0),m7,1.06^
same,"Galactose, lipid fraction",m7,1.37 *
same,"Glycerol phosphate, lipid fraction",m7,1.57 *
same,Histidine,m7,1.39 *
same,Indole-3-lactic acid,m7,1.13 *
same,Lignoceric acid (C24:0),m7,1.46 *
same,Nervonic acid (C24:cis[15]1),m7,1.69 *
same,Noradrenaline (Norepinephrine),m7,1.61 *
same,"Phosphate, lipid fraction",m7,1.32 *
same,"Phosphatidylcholine (C18:0, C18:2)",m7,1.04 *
same,"Phosphatidylcholine (C18:0, C20:3)",m7,1.03^
same,"Phosphatidylcholine (C18:0, C22:6)",m7,1.31 *
same,"Phosphatidylcholine (C18:0,C18:1)",m7,1.09 *
same,Phytosphingosine,m7,1.05^
same,Stearic acid (C18:0),m7,1.44 *
same,Testosterone,m7,3.32^
same,Threonine,m7,1.78 *
same,Tricosanoic acid (C23:0),m7,1.48 *
same,Tryptophan,m7,1.1 *
same,alpha-Tocopherol,m7,1.22 *
same,beta-Sitosterol,m7,2.11 *
same,"dihomo-gamma-Linolenic acid (C20:cis[8,11,14]3)",m7,1.66 *
same,erythro-Sphingosine (d18:1),m7,1.68 *
same,"myo-Inositol-2-phosphate, lipid fraction",m7,1.65 *
same,threo-Sphingosine (d18:1),m7,1.39 *
same,3-Hydroxybutyrate,m7,0.58 *
same,4-Hydroxy-3-methoxyphenylglycol (HMPG),m7,1.11^
same,18-Hydroxy-11-deoxycorticosterone,m7,0.03 *
same,21-Hydroxyprogesterone (11-Deoxycorticosterone),m7,0.3 *
same,Citrate,m7,1.24^
same,Coenzyme Q9,m7,0.58 *
same,Coenzyme Q10,m7,0.49 *
same,Corticosterone,m7,0.04 *
same,Metanephrine,m7,0.91^
same,Palmitoleic acid (C16:cis[9]1),m7,0.88 *
same,"Phosphatidylcholine (C16:0, C16:0)",m7,0.78 *
same,Progesterone,m7,0.4 *
same,trans-4-Hydroxyproline,m7,0.53 *
same,3-Methoxytyrosine,m14,1.81 *
same,3-O-Methylsphingosine (d18:1),m14,2.19 *
same,5-O-Methylsphingosine (d18:1),m14,2.18 *
same,Androstenedione,m14,3.8 *
same,"Arachidonic acid (C20:cis[5,8,11,14]4)",m14,2.03 *
same,Behenic acid (C22:0),m14,1.52 *
same,Cholesterol,m14,1.63 *
same,Cysteine,m14,1.28 *
same,Dodecanol,m14,1.71 *
same,Eicosanoic acid (C20:0),m14,1.15
same,"Galactose, lipid fraction",m14,2.57 *
same,"Glycerol phosphate, lipid fraction",m14,2.05 *
same,Histidine,m14,1.17
same,Indole-3-lactic acid,m14,1.15 *
same,Lignoceric acid (C24:0),m14,1.78 *
same,Nervonic acid (C24:cis[15]1),m14,2.55 *
same,Noradrenaline (Norepinephrine),m14,1.22
same,"Phosphate, lipid fraction",m14,1.8 *
same,"Phosphatidylcholine (C18:0, C18:2)",m14,1.04
same,"Phosphatidylcholine (C18:0, C20:3)",m14,1.16 *
same,"Phosphatidylcholine (C18:0, C22:6)",m14,1.5 *
same,"Phosphatidylcholine (C18:0,C18:1)",m14,1.48 *
same,Phytosphingosine,m14,1.23 *
same,Stearic acid (C18:0),m14,2.3 *
same,Testosterone,m14,2.63 *
same,Threonine,m14,2.58 *
same,Tricosanoic acid (C23:0),m14,1.3 *
same,Tryptophan,m14,1.11 *
same,alpha-Tocopherol,m14,1.32 *
same,beta-Sitosterol,m14,2.16 *
same,"dihomo-gamma-Linolenic acid (C20:cis[8,11,14]3)",m14,2.78 *
same,erythro-Sphingosine (d18:1),m14,1.92 *
same,"myo-Inositol-2-phosphate, lipid fraction",m14,2.78 *
same,threo-Sphingosine (d18:1),m14,2 *
same,3-Hydroxybutyrate,m14,0.73 *
same,4-Hydroxy-3-methoxyphenylglycol (HMPG),m14,0.99^
same,18-Hydroxy-11-deoxycorticosterone,m14,0.01 *
same,21-Hydroxyprogesterone (11-Deoxycorticosterone),m14,0.41 *
same,Citrate,m14,0.73 *
same,Coenzyme Q9,m14,0.74 *
same,Coenzyme Q10,m14,0.86^
same,Corticosterone,m14,0.01 *
same,Metanephrine,m14,0.66 *
same,Palmitoleic acid (C16:cis[9]1),m14,0.74 *
same,"Phosphatidylcholine (C16:0, C16:0)",m14,0.87 *
same,Progesterone,m14,0.54 *
same,trans-4-Hydroxyproline,m14,0.44 *
same,3-Methoxytyrosine,m28,2.05 *
same,3-O-Methylsphingosine (d18:1),m28,2.98 *
same,5-O-Methylsphingosine (d18:1),m28,2.54 *
same,Androstenedione,m28,0.94^
same,"Arachidonic acid (C20:cis[5,8,11,14]4)",m28,2.35 *
same,Behenic acid (C22:0),m28,1.57 *
same,Cholesterol,m28,1.97 *
same,Cysteine,m28,1.54 *
same,Dodecanol,m28,1.52 *
same,Eicosanoic acid (C20:0),m28,1.71 *
same,"Galactose, lipid fraction",m28,1.68 *
same,"Glycerol phosphate, lipid fraction",m28,2.16 *
same,Histidine,m28,1.37 *
same,Indole-3-lactic acid,m28,1.15 *
same,Lignoceric acid (C24:0),m28,1.9 *
same,Nervonic acid (C24:cis[15]1),m28,2.83 *
same,Noradrenaline (Norepinephrine),m28,1.39 *
same,"Phosphate, lipid fraction",m28,1.86 *
same,"Phosphatidylcholine (C18:0, C18:2)",m28,1.03^
same,"Phosphatidylcholine (C18:0, C20:3)",m28,1.18 *
same,"Phosphatidylcholine (C18:0, C22:6)",m28,1.67 *
same,"Phosphatidylcholine (C18:0,C18:1)",m28,1.55*
same,Phytosphingosine,m28,1.68 *
same,Stearic acid (C18:0),m28,2.71 *
same,Testosterone,m28,0.56^
same,Threonine,m28,1.73 *
same,Tricosanoic acid (C23:0),m28,1.39 *
same,Tryptophan,m28,1.14 *
same,alpha-Tocopherol,m28,1.44 *
same,beta-Sitosterol,m28,2.6 *
same,"dihomo-gamma-Linolenic acid (C20:cis[8,11,14]3)",m28,4.01 *
same,erythro-Sphingosine (d18:1),m28,2.2 *
same,"myo-Inositol-2-phosphate, lipid fraction",m28,3.26 *
same,threo-Sphingosine (d18:1),m28,2.13 *
same,3-Hydroxybutyrate,m28,0.68 *
same,4-Hydroxy-3-methoxyphenylglycol (HMPG),m28,0.82 *
same,18-Hydroxy-11-deoxycorticosterone,m28,0 *
same,21-Hydroxyprogesterone (11-Deoxycorticosterone),m28,0.01 *
same,Citrate,m28,0.81
same,Coenzyme Q9,m28,0.59 *
same,Coenzyme Q10,m28,0.7 *
same,Corticosterone,m28,0 *
same,Metanephrine,m28,0.58 *
same,Palmitoleic acid (C16:cis[9]1),m28,1.42 *
same,"Phosphatidylcholine (C16:0, C16:0)",m28,0.79 *
same,Progesterone,m28,0.03 *
same,trans-4-Hydroxyproline,m28,0.52 *
same,"3-Hydroxybutyrate, ratio versus control",day 7,0.58 *
same,"18-Hydroxy-11-deoxycorticosterone, ratio versus control",day 7,0.08 *
same,"Ceramide (d18:1, C24:1), ratio versus control",day 7,1
same,"Coenzyme Q10, ratio versus control",day 7,0.49 *
same,"Corticosterone, ratio versus control",day 7,0.04 *
same,"Metanephrine, ratio versus control",day 7,0.91
same,"Tricosanoic acid (C23:0), ratio versus control",day 7,1.48 *
same,"alpha-Tocopherol, ratio versus control",day 7,1.22 *
same,"trans-4-Hydroxyproline, ratio versus control",day 7,0.53 *
same,"3-Hydroxybutyrate, ratio versus control",day 14,0.73 *
same,"18-Hydroxy-11-deoxycorticosterone, ratio versus control",day 14,0.08 *
same,"Ceramide (d18:1, C24:1), ratio versus control",day 14,1.47 *
same,"Coenzyme Q10, ratio versus control",day 14,0.86
same,"Corticosterone, ratio versus control",day 14,0.01 *
same,"Metanephrine, ratio versus control",day 14,0.66 *
same,"Tricosanoic acid (C23:0), ratio versus control",day 14,1.3 *
same,"alpha-Tocopherol, ratio versus control",day 14,1.32 *
same,"trans-4-Hydroxyproline, ratio versus control",day 14,0.44 *
same,"3-Hydroxybutyrate, ratio versus control",day 28,0.68 *
same,"18-Hydroxy-11-deoxycorticosterone, ratio versus control",day 28,0.02 *
same,"Ceramide (d18:1, C24:1), ratio versus control",day 28,2.22 *
same,"Coenzyme Q10, ratio versus control",day 28,0.7 *
same,"Corticosterone, ratio versus control",day 28,0 *
same,"Metanephrine, ratio versus control",day 28,0.58 *
same,"Tricosanoic acid (C23:0), ratio versus control",day 28,1.39 *
same,"alpha-Tocopherol, ratio versus control",day 28,1.44 *
same,"trans-4-Hydroxyproline, ratio versus control",day 28,0.52 *
